Tests used:
sciatic nerve = assay: In vivo imaging of sciatic nerve in rat following oral administration of 5-ALA; design: species or system rats
Procedure: Images were obtained 24 hours after 5-ALA administration. (A) Bright field, (B) fluorescence image with false colour scale (highest intensity red/white) in rats administered with 5-ALA. Images were obtained with a CCD camera following excitation at 405 nm using a light-emitting diode (LED) and red porphyrin fluorescence was recorded at 620-650 nm.
(§1) 5-ALA was obtained from Sigma as an HCl salt in powder form, was stored inside a freezer. Before use, it was thawed, dissolved in a buffered aqueous solution at about pH 5, and then administered intravenously or orally.
A high fluorescence signal-to-background ratio (SBR) on the peripheral nerves was observed compared to adjacent tissues. […] The results were reproducible and were tested in 5 rats.

sciatic nerves [1] = assay: In vivo visualisation of sciatic nerves at various times following intravenous administration of 5-ALA; design: species or system Wistar rats
Procedure: (§2) Images were obtained 24 hours after 5-ALA administration using a CCD camera following excitation at 405 nm and porphyrin fluorescence was recorded at 620-650 nm. Scale bar 5 mm.
as §1
Wistar rats were administered with 5-ALA intravenously at various concentrations including 100 mg/kg and 200 mg/kg. In vivo visualisation of peripheral nerves such as sciatic nerves and brachial plexus were obtained at various post injection times ranging from 1 hours up to few weeks after administration of 5-ALA. […] 5-ALA-induced fluorescence was also detected 4 hours after administration of 5-ALA.

facial nerves = assay: In vivo visualisation of facial nerves following intravenous administration of 5-ALA; design: species or system Wistar rats; settings: including 24 hours after administration
Procedure: Images were obtained 24 hours after 5-ALA administration. (A) fluorescence image (highest intensity white colour) in rats administered with 5-ALA, (B) Bright field, in rats administered with 5-ALA, (C) Bright field, in rats administered with 5-control, and (D) fluorescence image (highest intensity white colour) in rats administered with control. Images were obtained with a CCD camera following excitation at 405 nm using a light-emitting diode (LED) and red porphyrin fluorescence was recorded at 620-650 nm.
as §1
Wistar rats were administered with 5-ALA intravenously at different concentrations including 0 mg/kg (control), 100 mg/kg and 200 mg/kg. In vivo visualisation of facial nerves which are part of the cranial nerves were performed at various times including 24 hours after administration of 5-ALA. […] No fluorescence was detected in control rats (FIG. 8D).

sciatic nerves [2] = assay: In vivo peripheral nerve labelling in rats, intravenous 5-ALA, fluorescence imaging of sciatic nerve; design: species or system Wistar rats
Procedure: Images were obtained 24 hours after 5-ALA administration. A: bright field, B: fluorescence image with false colour scale (highest intensity red/white) in rats injected with porphyrin prodrug, C: control rat without any drug injection. Images were obtained with a CCD camera following excitation at 405 nm using a light-emitting diode (LED) and red porphyrin fluorescence was recorded at 620-650 nm. Scale bar 5 mm.
as §1
(§3) To investigate the potential of a porphyrin prodrug for in vivo peripheral nerve labelling, Wistar rats (n>10 were injected intravenously with the porphyrin prodrug (5-aminolevulinic acid, 5-ALA), as shown in FIG. 1. At set time-points after the injection, the rats were sacrificed and the sciatic nerves and brachial plexus (near the armpit) and surrounding tissues (e.g. muscle, fat tissues) were exposed. The fluorescence image was recorded using a CCD camera.

brachial plexus = assay: In vivo peripheral nerve labelling in rats, intravenous 5-ALA, fluorescence imaging of brachial plexus; design: species or system Wistar rats
Procedure: as §2
False colour scale, red/white corresponding to high intensity. BP: brachial plexus, ALN: axillary lymph node. (A): Fluorescence image of the brachial plexus 4 hours post-injection, and (B) the corresponding bright field image (C): Fluorescence image of the brachial nerve 24 hours post-injection. (D): Brachial plexus image in control rat without 5-ALA injection.
5-ALA was obtained from Sigma as an HCl salt in powder form, was stored inside a freezer. […]
as §3
Wistar rats were administered with 5-ALA intravenously at various concentrations including 100 mg/kg and 200 mg/kg. […] 5-ALA-induced fluorescence was also detected 4 hours after administration of 5-ALA.

[3] = sciatic nerve, intravenous injection, excitation 405 nm, fluorescence 620-650 nm, without optimisation of dose or time

Compound: NCC(=O)CCC(=O)O [5-ALA, 5-aminolevulinic acid]
- red porphyrin fluorescence in rat nerves (sciatic nerve; 24 hours after administration): highly selective and localised
- fluorescence signal ratio versus adjacent tissues (sciatic nerve; tested in 5 rats): comparable to the intravenous injection route
- fluorescence intensity in nerve (sciatic nerves [1]; 2 weeks after administration): returned close to background levels
- fluorescence intensity in nerve (sciatic nerves [1]; 4 weeks after administration): returned close to background levels
- 5-ALA-induced fluorescence (PpIX) in sciatic nerve (sciatic nerves [1]; 4 hours after intravenous administration): detected
- 5-ALA-induced fluorescence (PpIX) in sciatic nerve (sciatic nerves [1]; 24 hours after intravenous administration): bright and localised
- visualisation of sciatic nerves (sciatic nerves [1]; 3 days after systemic administration): clearly visualised
- visualisation of sciatic nerves (sciatic nerves [1]; 5 days after systemic administration): clearly visualised
- shortest time after contacting or administration at which peripheral nerves can be visualised (sciatic nerves [1]; peripheral nerves): ≥ 1 h
- time that peripheral nerves retain high levels of fluorescence compared to background after administration (sciatic nerves [1]; peripheral nerves): up to 7 days
- time after administration at which the highest SBR may be achieved (sciatic nerves [1]; peripheral nerves, PpIX cleared from adjacent tissues): about 24 hours
- 5-ALA induced fluorescence (PpIX) in branches of facial nerves (facial nerves): bright and localised
- red porphyrin fluorescence in rat nerves (sciatic nerves [2]; intravenous injection): highly selective and localised
- diameter of small nerve branches that can be resolved (sciatic nerves [2]; intravenous injection, fluorescence imaging): ~0.1 mm
- nerve to fat tissue ratio (fluorescence signal-to-background ratio) (sciatic nerves [2]; [3]): > 10
- nerve to muscle intensity ratio (fluorescence signal-to-background ratio) (sciatic nerves [2]; [3]): > 15
- time at which porphyrin levels reach a peak in surrounding tissue (sciatic nerves [2]; surrounding tissue (muscle, fat), then rapid decline to basal levels): ~4 h
- time course of nerve fluorescence in other peripheral nerves (brachial plexus; brachial plexus, compared with sciatic nerve time course): same results
- brachial plexus labelling (brachial plexus; intravenous injection): brachial plexus labelling
